Measurements taken from ChEMBL document CHEMBL1201862, “PubChem BioAssay data set” (2004).
Active and inactive are the calls of the source.

How the values were obtained:
[1] = viability of HCT116 lacking mutant beta-catenin – cell-based, human colon tumor, dose response (AID 1045); type: functional;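 also: HCT116 colon tumor cells with beta catenin knocked out; cells exposed to compound for 60 hours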
Hexokinase HKDC1 = target: T1, Hexokinase HKDC1 (Homo sapiens, UniProt Q2TB90); experiment: inhibition of HKDC1 glucose phosphorylation – biochemical, W721R variant, dose response (AID 504729); type: functional
T1 sequence (Q2TB90 whole entry): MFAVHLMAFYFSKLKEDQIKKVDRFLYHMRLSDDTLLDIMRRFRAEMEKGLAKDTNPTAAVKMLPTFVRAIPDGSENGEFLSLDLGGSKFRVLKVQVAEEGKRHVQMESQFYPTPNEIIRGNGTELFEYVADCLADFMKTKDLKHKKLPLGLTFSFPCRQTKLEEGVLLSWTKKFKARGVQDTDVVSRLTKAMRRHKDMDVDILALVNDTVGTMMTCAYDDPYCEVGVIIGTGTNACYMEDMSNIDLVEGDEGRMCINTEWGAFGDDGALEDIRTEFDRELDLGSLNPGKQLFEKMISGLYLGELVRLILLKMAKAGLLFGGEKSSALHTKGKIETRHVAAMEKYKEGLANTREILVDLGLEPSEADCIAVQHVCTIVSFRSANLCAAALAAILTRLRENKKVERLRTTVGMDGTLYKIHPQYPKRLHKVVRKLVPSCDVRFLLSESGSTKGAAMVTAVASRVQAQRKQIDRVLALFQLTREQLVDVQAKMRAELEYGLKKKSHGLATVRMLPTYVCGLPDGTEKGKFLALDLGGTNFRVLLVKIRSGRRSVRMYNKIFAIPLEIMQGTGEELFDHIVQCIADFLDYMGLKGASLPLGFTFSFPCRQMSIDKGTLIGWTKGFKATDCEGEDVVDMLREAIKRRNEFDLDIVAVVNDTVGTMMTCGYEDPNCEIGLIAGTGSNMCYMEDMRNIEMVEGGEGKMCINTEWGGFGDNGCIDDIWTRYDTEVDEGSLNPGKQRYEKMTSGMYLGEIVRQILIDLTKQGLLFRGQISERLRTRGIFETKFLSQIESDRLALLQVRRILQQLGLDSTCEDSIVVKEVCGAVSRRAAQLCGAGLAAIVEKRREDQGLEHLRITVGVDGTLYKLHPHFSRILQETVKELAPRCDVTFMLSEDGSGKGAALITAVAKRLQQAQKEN

[2] = Fluorescence-based cell-based high throughput dose response assay for inhibitors of the interaction of nucleotide-binding oligomerization domain containing 2 (NOD2) and the receptor-interacting serine-threonine kinase 2 (RIPK2).; type: functional; conditions: Homo sapiens
Beta Lactamase = Beta Lactamase (Pseudomonas aeruginosa, UniProt Q932Y6); experiment: BLA reporter interference, concentration series – BLA reporter cells, FRET fluorescence, artefact control for NOD2-RIPK2 interaction inhibitor project, dose response (AID 651552); type: functional, cell-based
[3] = viability of PTEN-deleted HCT116 cells – cell-based, HCT116 PTEN knockout, dose response (AID 1047); type: functional;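 also: HCT116 colon tumor cells with PTEN knocked out; cells exposed to compound for 60 hours before readout; potency for loss of cell viability measured by luminescence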
[4] = target: Alkaline phosphatase, placental type (Homo sapiens, UniProt P05187); experiment: human placental alkaline phosphatase inhibition – biochemical, luminescence, confirmation (AID 1512); type: functional
[5] = target: T2, Alkaline phosphatase, tissue-nonspecific isozyme (Homo sapiens, UniProt P05186); experiment: potency against alkaline phosphatase TNAP – biochemical, luminescent, dose response, SAR follow-up (AID 1056)
T2 sequence (P05186 whole entry): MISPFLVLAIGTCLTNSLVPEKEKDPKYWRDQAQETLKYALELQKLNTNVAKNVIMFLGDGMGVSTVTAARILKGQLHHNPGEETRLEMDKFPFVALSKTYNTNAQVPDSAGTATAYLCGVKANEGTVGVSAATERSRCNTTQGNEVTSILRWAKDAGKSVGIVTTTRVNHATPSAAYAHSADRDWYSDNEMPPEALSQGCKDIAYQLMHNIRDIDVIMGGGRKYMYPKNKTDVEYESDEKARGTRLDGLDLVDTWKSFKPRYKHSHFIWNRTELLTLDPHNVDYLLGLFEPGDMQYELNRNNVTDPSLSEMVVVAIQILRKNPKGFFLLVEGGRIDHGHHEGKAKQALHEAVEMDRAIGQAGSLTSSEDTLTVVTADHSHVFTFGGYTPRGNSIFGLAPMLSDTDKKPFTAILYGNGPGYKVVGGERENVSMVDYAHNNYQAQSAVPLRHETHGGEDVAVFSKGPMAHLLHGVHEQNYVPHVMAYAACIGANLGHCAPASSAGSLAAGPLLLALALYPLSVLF

Trypsin = Trypsin (Sus scrofa, UniProt P00761); experiment: trypsin protease activity blockade – biochemical, quenched peptide fluorescence, cherry-pick, selectivity assay for Rce1 protease inhibitor project, dose response (AID 488789)
CAAX prenyl protease 2 = target: T3, CAAX prenyl protease 2 (Saccharomyces cerevisiae S288c, UniProt Q03530); type: biochemical
T3 sequence (Q03530 whole entry): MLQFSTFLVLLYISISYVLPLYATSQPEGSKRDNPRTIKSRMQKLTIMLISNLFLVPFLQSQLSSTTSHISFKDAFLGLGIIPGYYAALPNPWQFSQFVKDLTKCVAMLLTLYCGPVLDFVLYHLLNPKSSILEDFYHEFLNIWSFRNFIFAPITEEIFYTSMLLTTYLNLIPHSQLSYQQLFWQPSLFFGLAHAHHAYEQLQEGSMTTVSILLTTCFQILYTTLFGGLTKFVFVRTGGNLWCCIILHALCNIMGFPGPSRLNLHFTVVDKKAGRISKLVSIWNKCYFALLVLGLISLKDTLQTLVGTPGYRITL

Coagulation factor XII = Coagulation factor XII (Homo sapiens, UniProt P00748); type: functional;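 also: activated factor XIIa alpha cleaving a fluorogenic AMC peptide substrate; inhibitor potency from loss of enzyme activity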
Hexokinase = Hexokinase (Trypanosoma brucei, UniProt Q38C41); experiment: Confirmation assay for inhibitors of Trypanosoma brucei hexokinase 1-Analogue-first series. [Related pubchem assays (depositor defined):AID1430, AID1632, AID2516, AID2560, AID2579, AID2600, AID449725, AID492951]; type: functional
[6] = target: Voltage-dependent T-type calcium channel subunit alpha-1H (Homo sapiens, UniProt O95180); experiment: human CACNA1H calcium influx blockade – cell-based, synthetic library set 1, calcium flux (AID 493022); type: functional
[7] = target: T4, Corticotropin-releasing factor receptor 2/Corticotropin-releasing factor-binding protein (Homo sapiens, UniProt P24387+Q13324); experiment: Dose Response confirmation of uHTS hits for small molecule antagonists of the CRF-binding protein and CRF-R2 receptor complex.; type: functional; conditions: read-out: IC50_Mean
T4 sequence (Q13324 whole entry): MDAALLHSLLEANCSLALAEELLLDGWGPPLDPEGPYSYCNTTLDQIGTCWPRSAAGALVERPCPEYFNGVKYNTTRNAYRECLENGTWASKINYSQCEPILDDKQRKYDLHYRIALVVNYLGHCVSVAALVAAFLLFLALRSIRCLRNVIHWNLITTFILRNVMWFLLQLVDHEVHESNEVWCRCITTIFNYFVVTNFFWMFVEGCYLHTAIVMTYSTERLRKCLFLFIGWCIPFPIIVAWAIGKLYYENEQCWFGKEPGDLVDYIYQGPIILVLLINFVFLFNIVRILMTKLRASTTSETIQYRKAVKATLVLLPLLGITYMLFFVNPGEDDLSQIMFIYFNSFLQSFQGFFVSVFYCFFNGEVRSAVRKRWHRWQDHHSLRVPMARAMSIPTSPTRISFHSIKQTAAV
T4 sequence (P24387 whole entry): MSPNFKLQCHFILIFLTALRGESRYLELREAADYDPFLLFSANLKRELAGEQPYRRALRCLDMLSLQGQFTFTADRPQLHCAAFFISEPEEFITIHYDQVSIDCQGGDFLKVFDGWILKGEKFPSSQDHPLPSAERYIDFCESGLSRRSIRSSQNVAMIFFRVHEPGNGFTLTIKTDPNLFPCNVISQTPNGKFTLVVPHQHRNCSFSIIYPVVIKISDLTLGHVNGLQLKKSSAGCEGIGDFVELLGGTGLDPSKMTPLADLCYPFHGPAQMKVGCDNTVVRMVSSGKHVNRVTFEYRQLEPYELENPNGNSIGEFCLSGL

[8] = tested on: Streptococcus sp. 'group A'; experiment: Streptococcus pyogenes SK(-)GAS viability under kanamycin – luminescence, BacTiterGlo, confirmation, counter-screen for streptokinase expression inhibitor project, dose response (AID 1900); type: functional, organism-based
Streptokinase A = target: T5, Streptokinase A (Streptococcus pyogenes serotype M1, UniProt P10520); experiment: viability-normalized secreted streptokinase activity reduction – plasminogen activation absorbance, OD405, dose response (AID 1914); type: functional, Streptococcus pyogenes M1 GAS;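 also: secreted streptokinase activity via plasminogen activation per viability signal from cell pellet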
T5 sequence (P10520 whole entry): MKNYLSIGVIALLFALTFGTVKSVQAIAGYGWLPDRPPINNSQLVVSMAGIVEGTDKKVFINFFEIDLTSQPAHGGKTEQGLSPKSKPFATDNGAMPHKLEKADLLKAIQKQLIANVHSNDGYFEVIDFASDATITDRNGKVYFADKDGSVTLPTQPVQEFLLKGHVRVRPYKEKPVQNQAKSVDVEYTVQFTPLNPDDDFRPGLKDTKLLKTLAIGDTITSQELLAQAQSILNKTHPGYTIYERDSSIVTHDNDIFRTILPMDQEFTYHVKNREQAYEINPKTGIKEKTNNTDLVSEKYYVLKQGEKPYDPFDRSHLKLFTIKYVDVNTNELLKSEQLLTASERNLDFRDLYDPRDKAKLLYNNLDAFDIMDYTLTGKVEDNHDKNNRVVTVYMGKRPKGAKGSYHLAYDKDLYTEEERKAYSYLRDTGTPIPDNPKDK

Streptococcus = experiment: GAS UMAA2166 growth inhibition – luminescence, BacTiterGlo, counter-screen for streptokinase expression inhibitor project, dose response (AID 1915); type: functional, organism-based;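 also: potency for reduction of bacterial viability or growth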
[9] = HEK-293T viability loss after treatment – luminescence, T-cell screen hits, cytotoxicity control for TCR NF-kB inhibitor project, dose response (AID 489026); type: functional, cell-based;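 also: cells exposed to compound about 14 hours before the viability readout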
[10] = target: T4, Corticotropin-releasing factor receptor 2/Corticotropin-releasing factor-binding protein; experiment: activators of CRF receptor 2 with binding protein – uHTS hits, confirmation (AID 602473); type: functional; conditions: read-out: EC50_Mean
[11] = target: COUP transcription factor 2 (Homo sapiens, UniProt P24468); experiment: Luminescence-based cell-based high throughput dose response assay to identify inhibitors of COUP-TFII (NR2F2).; type: functional;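 also: HEK293 cells transiently cotransfected with COUP-TFII expression vector and reporter; luciferase reporter luminescence driven by COUP-TFII from the pX2-168 reporter plasmid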
[12] = target: T6, Runt-related transcription factor 1/Core-binding factor subunit beta (Homo sapiens, UniProt Q01196+Q13951); experiment: Runt domain/CBFb-SMMHC interaction disruptors – biochemical, TR-FRET (AID 1438); type: protein assay
[13] = target: T6, Runt-related transcription factor 1/Core-binding factor subunit beta; experiment: disruptors of Runt domain/CBFb-SMMHC interaction – biochemical, FRET, Cerulean-Runt, Venus-CBFb-SMMHC, uHTS, […] (AID 1434); type: protein assay
[14] = target: T7, Voltage-gated N-type calcium channel alpha-1B subunit/Amyloid beta A4 precursor protein-binding family A member 1 (Homo sapiens, UniProt Q00975+Q02410); type: protein assay
[15] = target: T7, Voltage-gated N-type calcium channel alpha-1B subunit/Amyloid beta A4 precursor protein-binding family A member 1; type: protein assay; remark: listed apart in the source
[16] = target: T8, Mannose-6-phosphate isomerase (Homo sapiens, UniProt P34949); experiment: MPI inhibition at elevated mannose 6-phosphate – biochemical, fluorescence intensity, high mannose 6-phosphate, primary screen (AID 1220)
T8 sequence (P34949 whole entry): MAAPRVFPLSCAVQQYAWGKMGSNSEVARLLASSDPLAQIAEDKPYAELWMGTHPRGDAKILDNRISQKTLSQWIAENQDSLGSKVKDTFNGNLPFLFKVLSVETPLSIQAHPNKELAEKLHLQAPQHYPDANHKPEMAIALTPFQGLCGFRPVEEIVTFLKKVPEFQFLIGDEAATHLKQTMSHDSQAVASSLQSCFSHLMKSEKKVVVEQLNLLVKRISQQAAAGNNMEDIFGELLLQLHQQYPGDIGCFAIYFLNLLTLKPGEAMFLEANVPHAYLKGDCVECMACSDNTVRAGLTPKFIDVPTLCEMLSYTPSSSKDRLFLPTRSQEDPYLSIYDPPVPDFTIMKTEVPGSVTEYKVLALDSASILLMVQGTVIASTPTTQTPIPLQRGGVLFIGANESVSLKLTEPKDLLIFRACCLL

SUMO-activating enzyme = SUMO-activating enzyme (Homo sapiens, UniProt Q9UBT2); experiment: blockers of SAE1/SAE2–UBC9 SUMO transfer – biochemical, HTRF, uHTS, primary screen (AID 2006); type: protein-complex assay

T6 sequence (Q01196 whole entry, the tested form may be a part): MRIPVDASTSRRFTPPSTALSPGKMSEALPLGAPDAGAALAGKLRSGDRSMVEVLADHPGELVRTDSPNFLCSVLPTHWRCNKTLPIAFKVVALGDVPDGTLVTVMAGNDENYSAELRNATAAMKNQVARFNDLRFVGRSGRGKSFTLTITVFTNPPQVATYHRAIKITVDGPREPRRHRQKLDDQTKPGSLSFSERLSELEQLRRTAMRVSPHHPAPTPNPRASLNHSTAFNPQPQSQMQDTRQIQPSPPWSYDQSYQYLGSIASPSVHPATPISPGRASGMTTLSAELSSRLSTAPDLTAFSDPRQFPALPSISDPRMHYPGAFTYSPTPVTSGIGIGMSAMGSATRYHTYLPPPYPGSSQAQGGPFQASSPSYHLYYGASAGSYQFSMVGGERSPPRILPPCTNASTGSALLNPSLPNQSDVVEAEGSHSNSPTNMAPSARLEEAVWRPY
T6 sequence (Q13951 whole entry, the tested form may be a part): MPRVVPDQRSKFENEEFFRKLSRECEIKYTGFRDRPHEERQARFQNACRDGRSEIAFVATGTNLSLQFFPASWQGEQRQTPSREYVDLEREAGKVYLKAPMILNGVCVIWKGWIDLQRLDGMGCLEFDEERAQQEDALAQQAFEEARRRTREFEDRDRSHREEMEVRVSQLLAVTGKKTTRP
Chain of Voltage-dependent T-type calcium channel subunit alpha-1H (O95180 whole entry): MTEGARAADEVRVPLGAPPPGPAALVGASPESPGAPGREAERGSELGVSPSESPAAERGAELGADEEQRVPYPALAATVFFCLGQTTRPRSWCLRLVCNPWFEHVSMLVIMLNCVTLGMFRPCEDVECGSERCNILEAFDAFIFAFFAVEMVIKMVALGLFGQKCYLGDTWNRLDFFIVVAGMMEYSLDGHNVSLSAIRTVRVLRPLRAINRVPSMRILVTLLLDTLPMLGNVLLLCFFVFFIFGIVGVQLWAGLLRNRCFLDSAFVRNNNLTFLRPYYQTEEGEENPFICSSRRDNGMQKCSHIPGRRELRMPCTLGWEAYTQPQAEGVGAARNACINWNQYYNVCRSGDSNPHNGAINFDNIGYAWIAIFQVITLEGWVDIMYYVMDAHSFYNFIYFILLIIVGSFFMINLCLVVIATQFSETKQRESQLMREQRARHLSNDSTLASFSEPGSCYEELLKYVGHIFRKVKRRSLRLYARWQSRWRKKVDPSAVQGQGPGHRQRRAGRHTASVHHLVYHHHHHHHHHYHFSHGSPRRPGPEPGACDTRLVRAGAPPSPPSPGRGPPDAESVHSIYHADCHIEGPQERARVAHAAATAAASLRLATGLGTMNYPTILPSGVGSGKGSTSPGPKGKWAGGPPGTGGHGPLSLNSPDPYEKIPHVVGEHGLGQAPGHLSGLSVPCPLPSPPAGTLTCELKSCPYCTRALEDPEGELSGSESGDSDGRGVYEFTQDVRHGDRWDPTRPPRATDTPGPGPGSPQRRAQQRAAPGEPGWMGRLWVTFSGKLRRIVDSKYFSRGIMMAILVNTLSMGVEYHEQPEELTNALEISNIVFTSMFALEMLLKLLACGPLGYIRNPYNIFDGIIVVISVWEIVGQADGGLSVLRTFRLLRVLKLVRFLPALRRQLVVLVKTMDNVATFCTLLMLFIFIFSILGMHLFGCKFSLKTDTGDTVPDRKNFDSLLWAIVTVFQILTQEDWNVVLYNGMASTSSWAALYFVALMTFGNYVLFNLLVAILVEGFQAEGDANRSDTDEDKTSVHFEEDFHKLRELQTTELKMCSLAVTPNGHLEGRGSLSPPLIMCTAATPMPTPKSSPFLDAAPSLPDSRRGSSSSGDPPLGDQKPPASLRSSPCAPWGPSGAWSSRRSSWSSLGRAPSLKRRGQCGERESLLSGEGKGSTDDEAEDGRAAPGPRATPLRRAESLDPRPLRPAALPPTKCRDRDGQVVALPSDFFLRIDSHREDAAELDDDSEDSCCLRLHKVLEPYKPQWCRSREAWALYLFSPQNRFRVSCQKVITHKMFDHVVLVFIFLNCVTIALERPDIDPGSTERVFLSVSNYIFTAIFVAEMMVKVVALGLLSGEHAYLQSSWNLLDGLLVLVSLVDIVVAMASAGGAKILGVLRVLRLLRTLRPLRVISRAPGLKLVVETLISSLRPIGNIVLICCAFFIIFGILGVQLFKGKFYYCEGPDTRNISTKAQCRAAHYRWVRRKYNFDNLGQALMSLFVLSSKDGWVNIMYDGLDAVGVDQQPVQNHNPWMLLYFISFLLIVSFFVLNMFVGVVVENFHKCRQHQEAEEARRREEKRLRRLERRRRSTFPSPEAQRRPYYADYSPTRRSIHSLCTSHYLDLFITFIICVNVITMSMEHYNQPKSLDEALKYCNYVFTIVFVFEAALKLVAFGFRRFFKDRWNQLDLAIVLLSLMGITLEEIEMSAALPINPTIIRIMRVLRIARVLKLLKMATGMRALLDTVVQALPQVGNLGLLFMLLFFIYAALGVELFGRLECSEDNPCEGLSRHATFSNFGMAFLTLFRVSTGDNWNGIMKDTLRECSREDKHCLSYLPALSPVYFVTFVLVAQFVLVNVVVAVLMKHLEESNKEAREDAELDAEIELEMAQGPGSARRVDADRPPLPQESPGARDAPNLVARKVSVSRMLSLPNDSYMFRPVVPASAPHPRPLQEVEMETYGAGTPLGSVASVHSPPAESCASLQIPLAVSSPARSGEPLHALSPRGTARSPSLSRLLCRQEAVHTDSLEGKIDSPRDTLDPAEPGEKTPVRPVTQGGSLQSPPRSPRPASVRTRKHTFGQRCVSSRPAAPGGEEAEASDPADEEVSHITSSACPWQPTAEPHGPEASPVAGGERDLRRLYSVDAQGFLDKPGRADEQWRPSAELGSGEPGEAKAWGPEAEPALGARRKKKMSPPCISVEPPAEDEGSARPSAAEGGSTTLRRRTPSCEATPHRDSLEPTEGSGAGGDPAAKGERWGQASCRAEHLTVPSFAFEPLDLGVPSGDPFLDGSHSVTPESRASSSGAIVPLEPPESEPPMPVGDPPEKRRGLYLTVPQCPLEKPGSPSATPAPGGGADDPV
Chain of Coagulation factor XII (P00748 20-372 limits assumed): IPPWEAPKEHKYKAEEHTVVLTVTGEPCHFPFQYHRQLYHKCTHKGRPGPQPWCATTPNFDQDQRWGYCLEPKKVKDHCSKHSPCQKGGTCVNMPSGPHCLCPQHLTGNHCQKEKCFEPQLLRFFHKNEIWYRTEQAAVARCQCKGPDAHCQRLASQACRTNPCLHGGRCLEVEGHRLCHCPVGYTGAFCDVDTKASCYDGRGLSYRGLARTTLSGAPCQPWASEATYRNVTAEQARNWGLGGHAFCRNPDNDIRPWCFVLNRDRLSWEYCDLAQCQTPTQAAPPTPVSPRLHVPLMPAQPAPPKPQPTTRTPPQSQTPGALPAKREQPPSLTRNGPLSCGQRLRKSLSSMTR
Chain of Coagulation factor XII (P00748 373-615 limits assumed): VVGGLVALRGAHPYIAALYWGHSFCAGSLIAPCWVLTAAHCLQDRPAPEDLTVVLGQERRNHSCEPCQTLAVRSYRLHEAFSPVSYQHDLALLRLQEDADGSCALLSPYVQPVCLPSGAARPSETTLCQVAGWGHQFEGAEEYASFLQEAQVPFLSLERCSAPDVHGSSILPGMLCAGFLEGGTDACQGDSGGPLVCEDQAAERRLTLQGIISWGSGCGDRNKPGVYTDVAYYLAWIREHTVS
Chain of Alkaline phosphatase, placental type (P05187 whole entry): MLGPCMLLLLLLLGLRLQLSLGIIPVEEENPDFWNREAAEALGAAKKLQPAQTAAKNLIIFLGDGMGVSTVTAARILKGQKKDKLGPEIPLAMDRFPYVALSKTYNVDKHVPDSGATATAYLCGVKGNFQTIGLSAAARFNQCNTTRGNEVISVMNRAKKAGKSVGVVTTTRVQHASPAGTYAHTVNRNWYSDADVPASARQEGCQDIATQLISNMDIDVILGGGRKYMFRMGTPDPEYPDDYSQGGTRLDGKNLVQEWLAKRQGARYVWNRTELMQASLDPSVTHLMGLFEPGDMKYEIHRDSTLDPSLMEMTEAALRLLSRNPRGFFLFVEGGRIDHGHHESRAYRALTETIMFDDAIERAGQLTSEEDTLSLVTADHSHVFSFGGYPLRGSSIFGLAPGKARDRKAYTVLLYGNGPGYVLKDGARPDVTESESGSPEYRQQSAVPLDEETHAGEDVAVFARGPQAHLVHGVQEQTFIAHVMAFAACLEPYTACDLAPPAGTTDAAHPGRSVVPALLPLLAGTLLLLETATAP
Chain of Trypsin (P00761 whole entry): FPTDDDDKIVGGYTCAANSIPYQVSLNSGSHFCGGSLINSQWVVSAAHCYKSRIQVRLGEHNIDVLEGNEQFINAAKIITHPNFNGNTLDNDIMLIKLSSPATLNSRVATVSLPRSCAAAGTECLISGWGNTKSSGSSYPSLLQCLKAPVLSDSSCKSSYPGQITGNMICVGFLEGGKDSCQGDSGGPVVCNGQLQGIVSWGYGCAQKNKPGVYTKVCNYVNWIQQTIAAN
Chain of COUP transcription factor 2 (P24468 whole entry, the tested form may be a part): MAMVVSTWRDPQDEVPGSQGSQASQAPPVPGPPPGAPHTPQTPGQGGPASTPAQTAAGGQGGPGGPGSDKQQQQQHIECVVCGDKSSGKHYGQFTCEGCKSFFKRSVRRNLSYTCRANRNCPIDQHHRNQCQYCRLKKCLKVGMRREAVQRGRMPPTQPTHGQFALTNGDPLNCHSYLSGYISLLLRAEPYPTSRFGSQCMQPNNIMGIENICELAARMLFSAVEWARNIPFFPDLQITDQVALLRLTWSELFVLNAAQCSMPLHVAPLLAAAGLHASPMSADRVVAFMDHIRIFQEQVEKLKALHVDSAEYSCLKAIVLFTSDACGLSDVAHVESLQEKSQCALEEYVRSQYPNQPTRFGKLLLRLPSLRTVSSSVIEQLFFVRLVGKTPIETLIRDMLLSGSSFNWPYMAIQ

CC(C)(C=O)C1=CC(=O)c2ccccc2C1=O
EC50 [1]: 4.58 µM (active) | IC50 (Hexokinase HKDC1): 27.9 µM (inactive) | IC50 [2]: 1.23 µM (active) | IC50 (Beta Lactamase): 11.5 µM (inactive) | EC50 [3]: 4.68 µM (active)

CCCCN1C(=O)/C(=N\Nc2ccccc2Cl)c2ccccc21
IC50 [4]: 91.6 µM (active) | IC50 [5]: > 100 µM (inactive)

CCn1cc(/C=C(\NC(=O)c2ccccc2)C(=O)N2CCOCC2)c2ccccc21
AC50 (Trypsin): 23.6 µM (active) | AC50 (CAAX prenyl protease 2): 5.85 µM (active)

C/C(Cc1ccccc1)=N\NC(=O)CNC(=O)c1ccc(Cl)cc1Cl
IC50 (Coagulation factor XII): > 50 µM (inactive)

COc1ccc(C(=O)Nc2cccc(Cl)c2)cc1
IC50 (Hexokinase): > 25 µM (inactive)

O=C(COc1ccccc1F)Nc1nnc(-c2ccc3c(c2)CCCC3)o1
EC50 [6]: 1.7 µM (active)

c1ccc(-n2cccc2)c(N2CCCCC2)c1
IC50 (Coagulation factor XII): > 50 µM (inactive)

COc1ccc(-c2ccc3oc(-c4ccc(OC)cc4)c(C#CCO)c3c2)cc1
IC50 [7]: > 47.1 µM (inactive) | EC50 [8]: > 150 µM (not active) | EC50 (Streptokinase A): > 150 µM (not active) | EC50 (Streptococcus): > 150 µM (not active) | IC50 [9]: > 80 µM (inactive) | EC50 [10]: > 53 µM (inactive) | IC50 [11]: 3.38 µM (active)

O=C(COc1ccccc1Cl)Nc1nnc(-c2ccc3c(c2)OCCO3)o1
EC50 [6]: 3.1 µM (active)

CCC(=O)Nc1c(S(=O)(=O)c2ccccc2)c2nc3ccccc3nc2n1Cc1ccccc1
IC50 [12]: > 100 µM (inactive) | IC50 [13]: 4.74 µM (active)

O=C(CSc1nc2ccccc2[nH]1)c1ccc(O)c(O)c1
IC50 [4]: 4.79 µM (active) | IC50 [5]: 5.44 µM (active)

COc1ccc(-c2cc3c(=O)n(CC(=O)Nc4ccc(C(C)=O)cc4)ncn3n2)cc1
IC50 [14]: > 50 µM (inactive) | IC50 [15]: 7.89 µM (active)

Cc1cccn2c(=O)c(/C=C(\C#N)C(=O)NCc3ccco3)c(N3CCCC(C)C3)nc12 (stereo unspecified)
IC50 [12]: > 100 µM (inactive) | IC50 [13]: > 100 µM (inactive)

CCN(CC)C(=O)C1CCCN(C(=O)Nc2ccc3nsnc3c2)C1 (stereo unspecified)
IC50 [16]: > 50 µM (not active) | IC50 (SUMO-activating enzyme): 12 µM (active)
